Test results published in patent US20220056043A1, “NITROGEN-CONTAINING FUSED CYCLIC COMPOUND, PREPARATION METHOD THEREFOR AND USE THEREOF” (SICHUAN KELUN-BIOTECH BIOPHARMACEUTICAL CO., LTD., priority 2019, published 2022).
Where a name gives a salt, the structure may show the parent alone.

Molecular target: T1, hNLRP3 inflammasome (Homo sapiens, UniProt Q96P20)
T1 construct: endogenous in cells; host or cells: THP-1 cells, PMA-differentiated
Experiment: Agonistic effect on the expression of IL-1β in THP-1 cells after PMA-induced differentiation (HTRF)
Format: cell-based
Details: IL-1β level, PMA-differentiated THP-1 cells, 6 hours
From the text: Experimental Example 1: Agonistic Effect of the Compound of the Invention on the Expression of IL-1β in THP-1 Cells after PMA-Induced Differentiation
In this test, a HTRF (homogeneous time-resolved fluorescence) detection method was used to test the effect of the compound of the invention on the level of downstream cytokine IL-1β of NLRP3 to evaluate the agonistic effect of the compound on hNLRP3 inflammasome or hNLRP3 inflammasome pathway at a cellular level.
Reagent: RPMI 1640 (Hyclone); heat-inactivated FBS (fetal bovine serum) (Gibco); PMA (phorbol myristal acetate) (Beyotime)
Kit: IL-1β assay kit (CISIO)
1) THP-1 cells in a logarithmic growth phase were seeded in a T75 culture flask at a density of 5×10^5 cells/well, and cultured in a cell incubator at 37° C., 5% CO2 for 24 hours, and then 1 μM PMA was used to induce THP-1 suspension cells to become adherent macrophages. The medium was RPMI 1640 containing 10% heat-inactivated FBS and 0.05 mM β-mercaptoethanol.
2) The cells were induced and cultured for 24 hours. Then the adherent cells were trypsinized and centrifuged at 1000 rpm for 5 min. The supernatant was removed, and the cells were resuspended to a density of 2×10^6 cells/mL in RPMI 1640 medium containing 2% heat-inactivated FBS. 50 μL/well of cell resuspension was taken and spread on a 96-well plate such that the number of cells in each well was 1×10^5.
3) An appropriate amount of 10 mM DMSO solution of the compound to be tested was taken and diluted to a concentration of 2× test concentration with RPMI 1640 medium containing 2% heat-inactivated FBS. 50 μL/well of the dilution was added to the cells in the 96-well plate, and mixed well. The plate was placed in a cell incubator at 37° C., 5% CO2 for 6 hours. The supernatant was collected, and the level of IL-1β was measured in accordance with the instructions of the IL-1β detection kit.
4) EC50 was fitted by the GraphPad software log(agonist) vs. response—Variable slope four-parameter method.

T1 sequence (Q96P20 whole entry): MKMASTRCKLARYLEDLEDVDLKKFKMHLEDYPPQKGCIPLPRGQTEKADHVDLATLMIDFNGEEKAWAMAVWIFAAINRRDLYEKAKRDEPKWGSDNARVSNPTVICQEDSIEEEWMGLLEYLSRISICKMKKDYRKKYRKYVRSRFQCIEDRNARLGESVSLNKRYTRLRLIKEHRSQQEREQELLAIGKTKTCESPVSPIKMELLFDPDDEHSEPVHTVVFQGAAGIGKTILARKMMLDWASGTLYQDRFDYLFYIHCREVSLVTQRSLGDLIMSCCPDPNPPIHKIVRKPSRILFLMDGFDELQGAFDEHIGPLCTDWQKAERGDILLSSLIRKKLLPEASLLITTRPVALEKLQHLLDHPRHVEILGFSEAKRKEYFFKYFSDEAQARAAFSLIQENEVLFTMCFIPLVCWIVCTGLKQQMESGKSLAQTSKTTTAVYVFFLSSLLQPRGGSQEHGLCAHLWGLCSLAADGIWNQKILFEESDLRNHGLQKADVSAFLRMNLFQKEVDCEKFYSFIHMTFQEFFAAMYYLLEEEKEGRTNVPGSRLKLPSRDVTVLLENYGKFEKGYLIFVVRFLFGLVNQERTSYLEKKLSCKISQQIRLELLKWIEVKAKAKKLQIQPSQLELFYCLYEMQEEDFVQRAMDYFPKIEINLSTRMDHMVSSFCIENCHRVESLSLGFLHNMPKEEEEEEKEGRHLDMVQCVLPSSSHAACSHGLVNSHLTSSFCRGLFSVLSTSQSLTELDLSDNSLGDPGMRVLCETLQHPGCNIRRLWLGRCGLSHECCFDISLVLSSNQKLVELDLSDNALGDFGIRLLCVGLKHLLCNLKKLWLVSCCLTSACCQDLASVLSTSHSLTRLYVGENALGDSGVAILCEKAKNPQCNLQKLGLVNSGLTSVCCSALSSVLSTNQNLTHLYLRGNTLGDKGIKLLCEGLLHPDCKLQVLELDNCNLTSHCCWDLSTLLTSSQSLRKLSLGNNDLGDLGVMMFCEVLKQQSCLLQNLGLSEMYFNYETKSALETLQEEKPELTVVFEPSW

SMILES	EC50
Nc1cc(N[C@H]2CC[C@H](O)C2)c2sc(-c3ccn[nH]3)cc2n1 [Compound 26, (1S,3S)-3-((5-amino-2-(1H-pyrazol-5-yl)thieno[3,2-b]pyridin-7-yl)amino)cyclopentanol]	0.1 µM
Nc1cc(N[C@@H]2CC[C@@H](O)C2)c2sc(-c3ccn[nH]3)cc2n1 [Compound 30s, (1R,3R)-3-((5-amino-2-(1H-pyrazol-5-yl)thieno[3,2-b]pyridin-7-yl)amino)cyclopentanol hydrochloride]	0.02 µM
C[C@H](O)CNc1cc(N)nc2cc(-c3ccn[nH]3)sc12 [Compound 33]	0.26 µM
CN1CCN(CCCNc2cc(N)nc3cc(-c4ccn[nH]4)sc23)CC1 [Compound 54, N^7-(3-(4-methylpiperazin-1-yl)propyl)-2-(1H-pyrazol-5-yl)thieno[3,2-b]pyridine-5,7-diamine]	0.92 µM
CN1CCN(CCNc2cc(N)nc3cc(-c4ccn[nH]4)sc23)CC1 [Compound 57, N^7-(2-(4-methylpiperazin-1-yl)ethyl)-2-(1H-pyrazol-5-yl)thieno[3,2-b]pyridine-5,7-diamine]	0.57 µM
Nc1cc(NC2CCOC2)c2sc(-c3ccn[nH]3)cc2n1 (stereo not shown) [Compound 61, 2-(1H-pyrazol-5-yl)-N^7-(tetrahydrofuran-3-yl)thieno[3,2-b]pyridine-5,7-diamine]	0.1 µM
Cn1cnc(CNc2cc(N)nc3cc(-c4ccn[nH]4)sc23)c1 [Compound 63, N^7-(1-methyl-1H-imidazol-4-yl)methyl-2-(1H-pyrazol-5-yl)thieno[3,2-b]pyridine-5,7-diamine]	0.07 µM
Nc1cc(NCCNC(=O)C2CC2)c2sc(-c3ccn[nH]3)cc2n1 [Compound 64]	0.05 µM
CC(=O)N(C)CCCNc1cc(N)nc2cc(-c3ccn[nH]3)sc12 [Compound 74, N-(3-((5-amino-2-(1H-pyrazol-5-yl)thieno[3,2-b]pyridin-7-yl)amino)propyl)-N-methylacetamide]	0.26 µM
CN(CCCNc1cc(N)nc2cc(-c3ccn[nH]3)sc12)C(=O)C1CC1 [Compound 76, N-(3-((5-amino-2-(1H-pyrazol-5-yl)thieno[3,2-b]pyridin-7-yl)amino)propyl)-N-methylcyclopropane formamide]	0.27 µM
CCC(=O)N(C)CCNc1cc(N)nc2cc(-c3ccn[nH]3)sc12 [Compound 88, N-(2-((5-amino-2-(1H-pyrazol-5-yl)thieno[3,2-b]pyridin-7-yl)amino)ethyl)-N-methylpropionamide]	0.04 µM
Nc1cc(NCCCO)c2sc(-c3ccncc3)cc2n1 [Compound 90, 3-((5-amino-2-(pyridin-4-yl)thieno[3,2-b]pyridin-7-yl)amino)-1-propanol]	6.03 µM
CC(=O)N1CCC(Nc2cc(N)nc3cc(-c4ccn[nH]4)sc23)CC1 [Compound 92, 1-(4-((5-amino-2-(1H-pyrazol-5-yl)thieno[3,2-b]pyridin-7-yl)amino)piperidin-1-yl)ethanone]	1.12 µM
Nc1cc(NCCCO)c2sc(-c3ccccc3)cc2n1 [Compound 93, 3-((5-amino-2-phenylthieno[3,2-b]pyridin-7-yl)amino)-1-propanol]	0.18 µM
CC[C@H](CO)Nc1cc(N)nc2cc(-c3ccn[nH]3)sc12 [Compound 95, (R)-2-((5-amino-2-(1H-pyrazol-5-yl)thieno[3,2-b]pyridin-7-yl)amino)butanol]	0.09 µM
Nc1cc(N[C@@H]2CCC[C@@H]2O)c2sc(-c3ccn[nH]3)cc2n1 [Compound 96, (1S,2R)-2-((5-amino-2-(1H-pyrazol-5-yl)thieno[3,2-b]pyridin-7-yl)amino)cyclopentanol]	0.07 µM
Nc1cc(NCC(F)(F)c2ccccn2)c2sc(-c3ccn[nH]3)cc2n1 [Compound 97, N^7-(2,2-difluoro-2-(pyridin-2-yl)ethyl)-2-(1H-pyrazol-5-yl)thieno[3,2-b]pyridine-5,7-diamine]	0.03 µM
CO[C@H](C)CNc1cc(N)nc2cc(-c3ccn[nH]3)sc12 [Compound 101, (R)—N^7-(2-methoxypropyl)-2-(1H-pyrazol-5-yl)thieno[3,2-b]pyridine-5,7-diamine]	0.03 µM
Nc1cc(NCC2CC2)c2sc(-c3ccn[nH]3)cc2n1 [Compound 102, N^7-(cyclopropylmethyl)-2-(1H-pyrazol-5-yl)thieno[3,2-b]pyridine-5,7-diamine]	0.01 µM
CN1CCC[C@@H](Nc2cc(N)nc3cc(-c4ccn[nH]4)sc23)C1 [Compound 104, (R)—N^7-(1-methylpiperidin-3-yl)-2-(1H-pyrazol-5-yl)thieno[3,2-b]pyridine-5,7-diamine]	0.17 µM
C[C@@H](CO)Nc1cc(N)nc2cc(-c3ccn[nH]3)sc12 [Compound 108, (S)-2-((5-amino-2-(1H-pyrazol-5-yl)thieno[3,2-b]pyridin-7-yl)amino)propanol]	0.34 µM

More lines, in order of falling EC50, values ahead:

EC50	SMILES
4.48 µM	Cn1cc(-c2cc3nc(N)cc(NCCCO)c3s2)cn1 [Compound 109, 3-((5-amino-2-(1-methyl-1H-pyrazol-4-yl)thieno[3,2-b]pyridin-7-yl)amino)-1-propanol]
0.54 µM	CC1(O)CCN(CCCNc2cc(N)nc3cc(-c4ccn[nH]4)sc23)CC1 [Compound 99, 1-(3-((5-amino-2-(1H-pyrazol-5-yl)thieno[3,2-b]pyridin-7-yl)amino)propyl)-4-methylpiperidine-4-ol]
0.44 µM	Nc1cc(NCCN2CCOCC2)c2sc(-c3ccn[nH]3)cc2n1 [Compound 55, N^7-(2-morpholinoethyl)-2-(1H-pyrazol-5-yl)thieno[3,2-b]pyridine-5,7-diamine]
0.39 µM	Nc1cc(NC2CC(O)C2)c2sc(-c3ccn[nH]3)cc2n1 (stereo not shown) [Compound 40, 3-((5-amino-2-(1H-pyrazol-5-yl)thieno[3,2-b]pyridin-7-yl)amino)cyclobutanol]
0.35 µM	CC1(O)CCN(CCNc2cc(N)nc3cc(-c4ccn[nH]4)sc23)CC1 [Compound 98, 1-(2-((5-amino-2-(1H-pyrazol-5-yl)thieno[3,2-b]pyridin-7-yl)amino)ethyl)-4-methylpiperidine-4-ol]
0.33 µM	CN1CC[C@H](Nc2cc(N)nc3cc(-c4ccn[nH]4)sc23)C1 [Compound 51, (S)—N^7-(1-methylpyrrolidin-3-yl)-2-(1H-pyrazol-5-yl)thieno[3,2-b]pyridine-5,7-diamine]
0.26 µM	Nc1cc(NCCCNC(=O)C2CC2)c2sc(-c3ccn[nH]3)cc2n1 [Compound 58]
0.2 µM	CC(=O)NCCNc1cc(N)nc2cc(-c3ccn[nH]3)sc12 [Compound 52]
0.18 µM	CC(=O)NCCCNc1cc(N)nc2cc(-c3ccn[nH]3)sc12 [Compound 53]
0.18 µM	CC(=O)N(C)CCNc1cc(N)nc2cc(-c3ccn[nH]3)sc12 [Compound 73, N-(2-((5-amino-2-(1H-pyrazol-5-yl)thieno[3,2-b]pyridin-7-yl)amino)ethyl)-N-methylethanamide]
0.16 µM	CN1CCC(Nc2cc(N)nc3cc(-c4ccn[nH]4)sc23)CC1 [Compound 89, N^7-(1-methylpiperidin-4-yl)-2-(1H-pyrazol-5-yl)thieno[3,2-b]pyridine-5,7-diamine]
0.11 µM	CN(CCNc1cc(N)nc2cc(-c3ccn[nH]3)sc12)C(=O)C1CC1 [Compound 75, N-(2-((5-amino-2-(1H-pyrazol-5-yl)thieno[3,2-b]pyridin-7-yl)amino)ethyl)-N-methylcyclopropionamide]
0.11 µM	Cc1cccc(-c2cc3nc(N)cc(NCCCO)c3s2)n1 [Compound 91, 3-((5-amino-2-(6-methylpyridin-2-yl)thieno[3,2-b]pyridin-7-yl)amino)-1-propanol]
0.1 µM	Nc1cc(NCc2ccccn2)c2sc(-c3ccn[nH]3)cc2n1 [Compound 59, 2-(1H-pyrazol-5-yl)-N^7-(pyridin-2-ylmethyl)thieno[3,2-b]pyridine-5,7-diamine]
0.1 µM	Cn1ccc(CNc2cc(N)nc3cc(-c4ccn[nH]4)sc23)n1 [Compound 60, N^7-(1-methyl-1H-pyrazol-3-yl)methyl-2-(1H-pyrazol-5-yl)thieno[3,2-b]pyridine-5,7-diamine]
0.06 µM	CC1CN(CCNc2cc(N)nc3cc(-c4ccn[nH]4)sc23)CC(C)O1 (stereo not shown) [Compound 62]
0.04 µM	Cn1cc(CNc2cc(N)nc3cc(-c4ccn[nH]4)sc23)cn1 [Compound 106, N^7-(1-methyl-1H-pyrazol-4-yl)methyl-2-(1H-pyrazol-5-yl)thieno[3,2-b]pyridine-5,7-diamine]
0.03 µM	Nc1cc(NC[C@@H]2CCCO2)c2sc(-c3ccn[nH]3)cc2n1 [Compound 105, (S)-2-(1H-pyrazol-5-yl)-N^7-((tetrahydrofuran-2-yl)methyl)thieno[3,2-b]pyridine-5,7-diamine]
0.02 µM	Nc1cc(NC2CCCC2)c2sc(-c3ccn[nH]3)cc2n1 [Compound 110, N^7-cyclopentyl-2-(1H-pyrazol-5-yl)thieno[3,2-b]pyridine-5,7-diamine]
